Bounds are passed on as bounds.

Sequence of Estrogen receptor-alpha (ERα) (P03372 whole entry): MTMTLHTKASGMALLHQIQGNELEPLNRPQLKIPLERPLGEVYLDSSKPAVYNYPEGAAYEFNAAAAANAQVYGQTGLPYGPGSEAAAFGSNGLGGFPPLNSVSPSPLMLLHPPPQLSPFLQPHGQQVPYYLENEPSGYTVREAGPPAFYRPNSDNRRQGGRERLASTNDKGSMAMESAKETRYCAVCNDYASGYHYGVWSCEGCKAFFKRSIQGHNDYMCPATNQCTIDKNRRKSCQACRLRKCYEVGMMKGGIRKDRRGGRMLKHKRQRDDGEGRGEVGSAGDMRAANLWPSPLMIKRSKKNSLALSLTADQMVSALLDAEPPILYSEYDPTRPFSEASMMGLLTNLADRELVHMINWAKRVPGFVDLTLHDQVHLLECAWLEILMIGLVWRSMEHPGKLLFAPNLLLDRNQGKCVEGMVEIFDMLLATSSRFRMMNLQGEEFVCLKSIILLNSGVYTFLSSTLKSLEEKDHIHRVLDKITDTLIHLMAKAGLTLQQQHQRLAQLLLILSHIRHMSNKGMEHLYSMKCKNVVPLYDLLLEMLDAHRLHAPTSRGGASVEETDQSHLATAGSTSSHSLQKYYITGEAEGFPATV
Sequence of immobilized CRBN protein (cereblon) (Q96SW2 whole entry): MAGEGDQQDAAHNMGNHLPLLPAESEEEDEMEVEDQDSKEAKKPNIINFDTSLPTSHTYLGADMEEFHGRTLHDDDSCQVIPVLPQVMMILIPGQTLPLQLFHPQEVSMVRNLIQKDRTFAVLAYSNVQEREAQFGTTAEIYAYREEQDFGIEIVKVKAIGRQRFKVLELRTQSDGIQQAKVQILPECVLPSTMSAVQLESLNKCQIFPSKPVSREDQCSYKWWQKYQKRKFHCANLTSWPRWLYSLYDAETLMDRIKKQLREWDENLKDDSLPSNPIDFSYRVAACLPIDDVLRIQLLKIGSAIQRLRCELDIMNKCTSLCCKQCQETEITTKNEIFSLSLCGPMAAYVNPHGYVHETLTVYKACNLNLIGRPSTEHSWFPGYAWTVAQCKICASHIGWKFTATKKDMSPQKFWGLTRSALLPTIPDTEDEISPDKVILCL

One assay addresses immobilized CRBN protein (cereblon) (Homo sapiens (Human), UniProt Q96SW2). The experiment in a line: Surface plasmon resonance (SPR) KD determination on immobilized cereblon. The following applies: average of at least N=2, 1:1 fit, read-out: KD Binding to immobilized CRBN protein in SPR assay. On the procedure:
The surface plasmon resonance (SPR) experiments were conducted on a Biacore3000 (GE Healthcare). Myc-tagged cereblon was immobilized on a carboxymethylated dextran surface (CM5) amine coupled to anti-Myc antibody to recognize the Myc tag. His-tagged cereblon protein was immobilized on a carboxymethylated dextran surface with nitriloacetic acid (NTA), taking advantage of NTA/Ni^2+ chelation. The prepared surface was allowed to equilibrate over three hours in running buffer (10 mM HEPES buffer @pH 7.4, 150 mM NaCl, 0.005% P20,2% DMSO).
All compounds were prepared in 100% DMSO stock plates with a top concentration of 5 mM in a 3× serial dilution. Compounds were transferred from the stock plate to the assay plate and diluted into running buffer containing no DMSO. All compounds were run as a six-concentration series with a final assay top concentration of 100 μM.
Data analysis was performed in Scrubber 2 (BioLogic software, Campbell, Australia). Blanks were subtracted and data was corrected for DMSO against a standard DMSO curve.
Consider `O=C1c2cccc(F)c2C(=O)N1c1ccc(C(F)(F)F)[nH]c1=O` [compound 7], for which the Kd (in general, a measure of binding affinity in units of concentration) is more than 100 µM.
On the same count and under the same terms, the value for `O=C1CCC(N2C(=O)c3ccc(F)c(F)c3C2=O)C(=O)N1` (stereo not drawn) [compound 9] was 1 to 10 µM.
Same read-out and setting: for `CNc1ccccc1C(=O)NCCn1ccc(=O)[nH]c1=O` [compound 12] the value was more than 100 µM; for `O=C1CCC(N2C(=O)c3cc(F)c(NCCCCCCO)cc3C2=O)C(=O)N1` (stereo not drawn) [compound 3], 10 to 100 µM; for `O=C1CCN(c2cncc3ccccc23)C(=O)N1` [compound 32], 1 to 10 µM.
On the same count and under the same terms, for `N#Cc1cn(-c2cccnc2)c(=O)[nH]c1=O` [compound 38] the value was more than 100 µM.
For the molecule `CC1(C)C(=O)NC(=O)N1C1CC2CCCCN2C1=O` (stereo not drawn) [compound 22], the Kd was more than 100 µM.
As to `Cc1c(-n2ccc(=O)[nH]c2=O)cnc2ccccc12` [compound 28], the Kd fell in the range of 10 to 100 µM.
On the same count and under the same terms, for `CNc1ccccc1C(=O)NCCN1CCC(=O)NC1=O` [compound 10] the value was more than 100 µM; for `O=C1NC(=O)C(N2C(=O)c3cccc(F)c3C2=O)N1` (stereo not drawn) [compound 24], more than 100 µM.
Take `O=C1CCC(N2Cc3c(ccc(F)c3OCCCCCCO)C2=O)C(=O)N1` (stereo not drawn) [compound 4]: the Kd fell in the range of 10 to 100 µM.
Regarding `NC(=O)c1ccc(N2C(=O)c3ccccc3C2=O)c(=O)[nH]1` [compound 42], the Kd was more than 100 µM.
On the same count and under the same terms, the value for `O=C1CCC(N2C(=O)c3ccc(F)cc3C2=O)C(=O)N1` (stereo not drawn) [compound 17] was more than 100 µM; that for `CCOc1cnn(C2CCC(=O)NC2=O)c(=O)c1Cl` (stereo not drawn) [compound 15] was more than 100 µM; that for `O=C1CCC(N2Cc3ccccc3C2=O)C2(COC2)N1` (stereo not drawn) [compound 20] was more than 100 µM.
Take `O=C1NCC(N2C(=O)c3ccccc3C2=O)C(=O)N1` (stereo not drawn) [compound 25]: the Kd was more than 100 µM.
`O=c1ccn(-c2cccnc2)c(=O)[nH]1` [compound 40]: the Kd lay in the range of 10 to 100 µM.
On the same count and under the same terms, for `Cc1cn(-c2cccnc2)c(=O)[nH]c1=O` [compound 39] the value was more than 100 µM; for `CCOc1cnn(C2CCC(=O)NC2=O)c(=O)c1` (stereo not drawn) [compound 30], 1 to 10 µM; for `O=C1CCC(N2C(=O)c3c(F)ccc(F)c3C2=O)C(=O)N1` (stereo not drawn) [compound 8], more than 100 µM.
Same read-out and setting: for `O=C1CCC(N2C(=O)c3ccccc3C2=O)C2(COC2)N1` (stereo not drawn) [compound 14] the value was more than 100 µM.
Same read-out and setting: the value for `CN1CC(N2C(=O)c3ccccc3C2=O)C(=O)NC1=O` (stereo not drawn) [compound 18] was more than 100 µM; that for `O=c1ccn(-c2cnc3ccccc3c2)c(=O)[nH]1` [compound 33] was more than 100 µM.
For `O=C1CN(C2Cc3ccccc3C2=O)C(=O)N1` (stereo not drawn) [compound 35], the Kd is more than 100 µM.
The same measure, in the same setting: for `N#Cc1ccc(N2C(=O)c3ccccc3C2=O)c(=O)[nH]1` [compound 44] the value was 10 to 100 µM; for `O=C1c2ccccc2C(=O)N1CCn1ccc(=O)[nH]c1=O` [compound 16], more than 100 µM; for `O=C1CCC(N2Cc3cc(NCCCCCCO)c(F)cc3C2=O)C(=O)N1` (stereo not drawn) [compound 5], 10 to 100 µM.
On the same count and under the same terms, the value for `Cn1cc(N2C(=O)c3ccccc3C2=O)c(=O)[nH]c1=O` [compound 21] was more than 100 µM; that for `Cc1cc(C#N)[nH]c(=O)c1N1C(=O)c2ccccc2C1=O` [compound 43] was 10 to 100 µM.
The same measure, in the same setting: the value for `O=C1c2ccccc2C(=O)N1c1c[nH]c(=O)[nH]c1=O` [compound 26] was more than 100 µM.
In the case of `CNc1ccccc1C(=O)NCCN1C(=O)CCNC1=O` [compound 11], the Kd was more than 100 µM.
Turning to `O=c1ccn(-c2cncc3ccccc23)c(=O)[nH]1` [compound 34], the Kd lay within 10 to 100 µM.
Consider `O=CN1CCC(N2C(=O)c3ccccc3C2=O)C(=O)N1` (stereo not drawn) [compound 19], for which the Kd is more than 100 µM.
On the same count and under the same terms, the value for `CCOc1ccn(C2CCC(=O)NC2=O)c(=O)c1` (stereo not drawn) [compound 31] was more than 100 µM.
Still for that read-out and setting: for `N#Cc1cn(-c2cnc3ccccc3c2)c(=O)[nH]c1=O` [compound 23] the value was 10 to 100 µM; for `Cc1c(N2CCC(=O)NC2=O)cnc2ccccc12` [compound 27], more than 100 µM.
For the molecule `CCOc1cc(=O)n(C2CCC(=O)NC2=O)cn1` (stereo not drawn) [compound 29], the Kd lay in the range of 10 to 100 µM.
On the same count and under the same terms, for `O=C1NC(C(F)(F)F)CCC1N1C(=O)c2cccc(F)c2C1=O` (stereo not drawn) [compound 6] the value was more than 100 µM; for `Cc1cc(C(N)=O)[nH]c(=O)c1N1C(=O)c2ccccc2C1=O` [compound 41], more than 100 µM; for `O=c1ccn([C@H]2C[C@H](O)[C@@H](CO)O2)c(=O)[nH]1` [compound 37], more than 100 µM.
In the case of `Cc1ccncc1-n1cc(C#N)c(=O)[nH]c1=O` [compound 36], the Kd was more than 100 µM.

Another assay concerns the target Estrogen receptor-alpha (ERα) (Homo sapiens (Human), UniProt P03372). The assay is described as follows: ERα degradation assay using In-Cell Western in MCF7 cells. In kind it is cell-based. The following applies: 3 day incubation, read-out: ER degradation DC50. On the procedure:
3. Estrogen Receptor-Alpha (ERα) Degradation Assay Using in-Cell Western™ Assay for Table 5.
Degradation of ERα by claimed compounds were determined in MCF7 cells using an In-Cell Western™ assay. Briefly, MCF7 cells were plated in 96-well plates (2000 cells per well in 100 μl media) and incubated at 37° C. under an atmosphere of 5% CO2 in a humidified incubator overnight. One-hundred (100) μl of media containing test compound (at 2× concentration) was added to the appropriate wells to provide 11 serially decreasing concentrations (top final concentration, 1 μM then 3-fold less for the next 10 concentrations); a vehicle control (DMSO) was also added for each compound. For each experiment, all compounds were assayed in duplicate plates. Cells were then incubated for 3 or 5 days in the above-mentioned environment. The assay was terminated by removal of media, a single wash with ice-cold PBS and the addition of 50 μl paraformaldehyde (PFA: 4% in PBS). After 15 minutes in PFA at room temperature, the cells were permeabilized in Tris-phosphate-buffered saline with Tween (0.1%) (TBST) supplemented with Triton X-100 (0.5%) for 15 minutes. Cells were then blocked in BSA (TBST with BSA, 3%) for one hour. […] The cells were incubated overnight at 4° C. The cells were then washed thrice with TBST at room temperature and then incubated with anti-rabbit and anti-mouse fluorescently-labelled secondary antibodies (IRDye®; LI-COR; Lincoln, NE) in LI-COR blocking buffer (Catalog #927-50000) for one hour at room temperature. Following 3 washes with TBST, the buffer was removed and the plates were read on an Odyssey® infrared imaging system (LI-COR®; Lincoln, NE) at 700 nm and 800 nm. Using commercial software (ImageStudio™; LI-COR, Lincoln, NE), the staining intensity for ERα and tubulin in each well was quantified and exported for analysis. For each data point, ERα intensity was normalized to tubulin intensity and for each compound all normalized intensity values were normalized to the vehicle control. DC50 and Dmax values were determined following a 4-parameter IC50 curve fit using ACAS dose response module (McNeil & Co Inc.).
For the molecule `Cc1nc2c(NCCN3CCN(CCOc4ccc(Oc5c(-c6ccc(Br)cc6)sc6cc(O)ccc56)cc4)CC3)cccc2c(=O)n1C1CCC(=O)NC1=O` (stereo not drawn) [PROTAC-107, 3-(8-((2-(4-(2-(4-((2-(4-bromophenyl)-6-hydroxybenzo[b]thiophen-3-yl)oxy)phenoxy)ethyl)piperazin-1-yl)ethyl)amino)-2-methyl-4-oxoquinazolin-3(4H)-yl)piperidine-2,6-dione], the DC50 – broadly, the concentration giving 50% degradation – was not below 0.1 µM.

The same assay, now with this note: 5 day incubation, read-out: ER degradation DC50.
For the molecule `O=C1CCC(n2ncc(N3CCN(CC4CCN(c5ccc([C@@H]6c7ccc(O)cc7CC[C@@H]6c6ccccc6)cc5)CC4)CC3)cc2=O)C(=O)N1` (stereo partly drawn) [PROTAC-102, 3-[4-[4-[[1-[4-[(1R,2S)-6-hydroxy-2-phenyl-tetralin-1-yl]phenyl]-4-piperidyl]methyl]piperazin-1-yl]-6-oxo-pyridazin-1-yl]piperidine-2,6-dione], the DC50 was 0.001 to 0.01 µM.
Same read-out and setting: the value for `O=C1CCC(n2cnc(N3CCN(CCCCCOc4ccc([C@@H]5c6ccc(O)cc6CC[C@@H]5c5ccccc5)cc4)CC3)cc2=O)C(=O)N1` (mixture of isomers) [PROTAC-101, rac-3-(4-(4-(5-(4-((1R,2S)-6-hydroxy-2-phenyl-1,2,3,4-tetrahydronaphthalen-1-yl)phenoxy)pentyl)piperazin-1-yl)-6-oxopyrimidin-1(6H)-yl)piperidine-2,6-dione] was 0.001 to 0.01 µM; that for `O=C1CCC(NC(=O)c2ccc(N3CCN(CCCCCOc4ccc([C@@H]5c6ccc(O)cc6CC[C@@H]5c5ccccc5)cc4)CC3)cn2)C(=O)N1` (mixture of isomers) [PROTAC-91, rac-N-(2,6-dioxopiperidin-3-yl)-5-(4-(5-(4-((1R,2S)-6-hydroxy-2-phenyl-1,2,3,4-tetrahydronaphthalen-1-yl)phenoxy)pentyl)piperazin-1-yl)picolinamide] was 0.001 to 0.01 µM.
Still for that read-out and setting: the value for `O=C1CCC(n2cc(-c3ccc(N4CCN(CCCOc5ccc([C@@H]6c7ccc(O)cc7CC[C@@H]6c6ccccc6)cc5)CC4)cc3)cn2)C(=O)N1` (mixture of isomers) [PROTAC-110, rac-3-(4-(4-(4-(3-(4-((1R,2S)-6-hydroxy-2-phenyl-1,2,3,4-tetrahydronaphthalen-1-yl)phenoxy)propyl)piperazin-1-yl)phenyl)-1H-pyrazol-1-yl)piperidine-2,6-dione] was less than 0.001 µM; that for `O=C1CCC(N2CC(c3ccc(N4CCN(CC5CCN(c6ccc([C@@H]7c8ccc(O)cc8CC[C@@H]7c7ccccc7)cc6)CC5)CC4)cc3)=CC2=O)C(=O)N1` (stereo partly drawn) [PROTAC-89, 3-[3-[4-[4-[[1-[4-[(1R,2S)-6-hydroxy-2-phenyl-tetralin-1-yl]phenyl]-4-piperidyl]methyl]piperazin-1-yl]phenyl]-5-oxo-2H-pyrrol-1-yl]piperidine-2,6-dione] was 0.001 to 0.01 µM.
Consider `CN(C(=O)c1ccc(N2CCN(CCCCCOc3ccc([C@@H]4c5ccc(O)cc5CC[C@@H]4c4ccccc4)cc3)CC2)cc1)C1CCC(=O)NC1=O` (mixture of isomers) [PROTAC-90, rac-N-(2,6-dioxopiperidin-3-yl)-4-(4-(5-(4-((1R,2S)-6-hydroxy-2-phenyl-1,2,3,4-tetrahydronaphthalen-1-yl)phenoxy)pentyl)piperazin-1-yl)-N-methylbenzamide], for which the DC50 lay in the range of 0.001 to 0.01 µM.
